Experimental data reported in US4877893A, “Process for the preparation of 2-(O-alkyl)-2-thio-1,3,2-oxathiophospholanes” (priority 1987, dated 1989).

Columns and labels:
Test in all cases: Fungicidal effect on infected agar nutrient media, colony diameter
Type in all cases: cell-based
[1] = system: Sclerotinia sclerotinia; settings: 3rd day after treatment, untreated control 41.7
Experimental: (§1) Agar nutrient media (Diameter 70 MM, thickness 10 mm) infected by Sclerotonia sclerotinia suspension are treated with 20 EC formulations prepared according to Example 27 and comprising 1, 10, 100 and 1000 ppm, respectively of the active ingredient of the Formula I. The fungicidal effect of the compositions is evaluated on the 3rd day after treatment by measuring the diameter of the Fungi colonies.

[2] = system: Penicillium cyclopium; settings: 7th day after treatment, untreated 26.5
Experimental: as §1
The series of measureents described in Example 35 is carried out except that the agar nutrient media are infected by a Penicillium cyclopium Fungi strain and the test is evaluated on the 7th day after treatment.

[3] = system: Alternaria tenuis; settings: 5th day after treatment, untreated control 36.8
Experimental: as §1
The series of measurements according to Example 35 is carried out except that the agar nutrient media are infected by Alternaria Tenius and evaluation is accomplished on the 5th day after treatment.

| SMILES | Diameter of colony (mm) ([1]; 1 ppm) | Diameter of colony (mm) ([1]; 10 ppm) | Diameter of colony (mm) ([1]; 100 ppm) | Diameter of colony (mm) ([1]; 1000 ppm) | Diameter of colony (mm) ([2]; 1 ppm) | Diameter of colony (mm) ([2]; 10 ppm) | Diameter of colony (mm) ([2]; 100 ppm) | Diameter of colony (mm) ([2]; 1000 ppm) | Diameter of colony (mm) ([3]; 1 ppm) | Diameter of colony (mm) ([3]; 10 ppm) | Diameter of colony (mm) ([3]; 100 ppm) | Diameter of colony (mm) ([3]; 1000 ppm) |
| --- | --- | --- | --- | --- | --- | --- | --- | --- | --- | --- | --- | --- |
| CC1OP(=S)(OCCBr)SC1C (stereo not drawn) [Compound 17] | 40.1 mm | 30.2 mm | 1.0 mm | 0 mm | 24.9 mm | 14.2 mm | 8.9 mm | 0 mm | 33.2 mm | 23.9 mm | 5.6 mm | 0 mm |
| CC1OP(=S)(OCCI)SC1C (stereo not drawn) [Compound 18] | 38.2 mm | 28.0 mm | 1.5 mm | 0 mm | 25.2 mm | 14.2 mm | 6.3 mm | 0 mm | 35.8 mm | 22.8 mm | 5.3 mm | 0 mm |
| CC(CCl)OP1(=S)OC(C)CS1 (stereo not drawn) [Compound 19, 2-(0-1'-methyl-2'-chloroethyl)-2-thio-5-methyl-1,3,2-oxathiophospholane] | 36.5 mm | 27.4 mm | 3.9 mm | 0 mm | 21.5 mm | 15.6 mm | 5.5 mm | 0 mm | 32.3 mm | 21.7 mm | 4.3 mm | 0 mm |
| CC(CBr)OP1(=S)OC(C)CS1 (stereo not drawn) [Compound 20] | 34.9 mm | 28.2 mm | 1.6 mm | 0 mm | 20.1 mm | 17.7 mm | 4.1 mm | 0 mm | 33.2 mm | 25.0 mm | 5.0 mm | 0 mm |
| CC(CI)OP1(=S)OC(C)CS1 (stereo not drawn) [Compound 21, 2-(0-1'-methyl-2'-iodoethyl)-2-thio-5-methyl-1,3,2-oxathiophospholane] | 33.8 mm | 25.8 mm | 2.50 mm | 0 mm | 23.7 mm | 20.0 mm | 6.9 mm | 0 mm | 30.9 mm | 24.2 mm | 7.2 mm | 0 mm |
| CC(Cl)COP1(=S)OC(C)CS1 (stereo not drawn) [Compound 22, 2-(0-2'-methyl-2'-chloroethyl)-2-thio-5-methyl-1,3,2-oxathiophospholane] | 37.8 mm | 30.1 mm | 2.9 mm | 0 mm | 24.6 mm | 16.2 mm | 6.7 mm | 0 mm | 34.4 mm | 26.1 mm | 8.7 mm | 0 mm |
| CC(Br)COP1(=S)OC(C)CS1 (stereo not drawn) [Compound 23] | 36.9 mm | 29.7 mm | 3.6 mm | 0 mm | 22.6 mm | 15.8 mm | 4.3 mm | 0 mm | 33.8 mm | 24.1 mm | 5.2 mm | 0 mm |
| CC(I)COP1(=S)OC(C)CS1 (stereo not drawn) [Compound 24] | 38.1 mm | 29.0 mm | 3.2 mm | 0 mm | 24.2 mm | 15.0 mm | 5.9 mm | 0 mm | 34.8 mm | 25.5 mm | 6.1 mm | 0 mm |
| CC(Cl)COP1(=S)OCC(C)S1 (stereo not drawn) [Compound 25] | 38.8 mm | 30.3 mm | 1.0 mm | 0 mm | 26.0 mm | 19.8 mm | 7.8 mm | 0 mm | 33.8 mm | 24.0 mm | 6.5 mm | 0 mm |
| CC(Br)COP1(=S)OCC(C)S1 (stereo not drawn) [Compound 26] | 40.9 mm | 32.1 mm | 1.6 mm | 0 mm | 20.5 mm | 18.8 mm | 8.5 mm | 0 mm | 34.2 mm | 21.1 mm | 6.2 mm | 0 mm |
| CC(I)COP1(=S)OCC(C)S1 (stereo not drawn) [Compound 27] | 41.2 mm | 28.6 mm | 1.4 mm | 0 mm | 23.8 mm | 17.5 mm | 4.6 mm | 0 mm | 33.5 mm | 22.4 mm | 8.8 mm | 0 mm |
| CC(Cl)C(C)OP1(=S)OCCS1 (stereo not drawn) [Compound 28] | 33.6 mm | 27.4 mm | 0 mm | 0 mm | 18.2 mm | 14.7 mm | 5.7 mm | 0 mm | 34.2 mm | 22.4 mm | 4.8 mm | 0 mm |
| CC(Br)C(C)OP1(=S)OCCS1 (stereo not drawn) [Compound 29] | 31.9 mm | 25.2 mm | 1.2 mm | 0 mm | 25.0 mm | 19.2 mm | 8.0 mm | 0 mm | 33.2 mm | 23.6 mm | 6.5 mm | 0 mm |
